According to ChEMBL document CHEMBL2062457, “Synthesis and antibacterial activity of desosamine-modified macrolide derivatives” (2012):
≈ marks a conversion by molar mass, not a printed value.

Tests used:
Format in all cases: functional
Staphylococcus aureus [1] = assay: Antibacterial activity against macrolide-susceptible Staphylococcus aureus ATCC 29213
Staphylococcus aureus [2] = assay: Antibacterial activity against macrolide-resistant Staphylococcus aureus ATCC 33591 constitutively expressing ermA
Staphylococcus aureus [3] = assay: Ratio of MIC for macrolide-resistant Staphylococcus aureus ATCC 33591 to MIC for macrolide-susceptible Staphylococcus aureus ATCC 29213

| SMILES | MIC (Staphylococcus aureus [1]) | MIC (Staphylococcus aureus [2]) | Ratio (Staphylococcus aureus [3]) |
| --- | --- | --- | --- |
| CC[C@H]1OC(=O)[C@H](C)[C@@H](O[C@H]2C[C@@](C)(OC)[C@@H](O)[C@H](C)O2)[C@H](C)[C@@H](O[C@@H]2O[C@H](C)C[C@H](NC)[C@H]2O)[C@](C)(OC)C[C@@H](C)C(=O)[C@H](C)[C@@H](O)[C@]1(C)O | 4 µg/mL (≈ 5.45 µM) | > 256 µg/mL |  |
| CC[C@H]1OC(=O)[C@H](C)[C@@H](O[C@H]2C[C@@](C)(OC)[C@@H](O)[C@H](C)O2)[C@H](C)[C@@H](O[C@@H]2O[C@H](C)C[C@H](NC)[C@H]2O)[C@](C)(O)C[C@@H](C)C(=O)[C@H](C)[C@@H](O)[C@]1(C)O | 8 µg/mL (≈ 11.1 µM) | > 256 µg/mL |  |
| CC[C@H]1OC(=O)[C@H](C)[C@@H](O[C@H]2C[C@@](C)(OC)[C@@H](O)[C@H](C)O2)[C@H](C)[C@@H](O[C@@H]2O[C@H](C)C[C@H](N(C)C(=N)N)[C@H]2O)[C@](C)(OC)C[C@@H](C)C(=O)[C@H](C)[C@@H](O)[C@]1(C)O | 32 µg/mL (≈ 41.2 µM) | > 256 µg/mL |  |
| CC[C@H]1OC(=O)[C@H](C)[C@@H](O[C@H]2C[C@@](C)(OC)[C@@H](O)[C@H](C)O2)[C@H](C)[C@@H](O[C@H]2C[C@@H](N(C)C)C[C@@H](C)O2)[C@](C)(O)C[C@@H](C)C(=O)[C@H](C)[C@@H](O)[C@]1(C)O | 64 µg/mL (≈ 89.1 µM) | > 256 µg/mL |  |
| CC[C@H]1OC(=O)[C@H](C)[C@@H](O[C@H]2C[C@@](C)(OC)[C@@H](O)[C@H](C)O2)[C@H](C)[C@@H](O[C@H]2C[C@@H](N(C)C)C[C@@H](C)O2)[C@](C)(OC)C[C@@H](C)C(=O)[C@H](C)[C@@H](O)[C@]1(C)O | 64 µg/mL (≈ 87.4 µM) | > 256 µg/mL |  |
| CC[C@H]1OC(=O)[C@H](C)C(=O)[C@H](C)[C@@H](O[C@@H]2O[C@H](C)C[C@H](NC)[C@H]2O)[C@](C)(OC)C[C@@H](C)C(=O)[C@H](C)[C@H]2N(CCCCn3cnc(-c4cccnc4)c3)C(=O)O[C@]12C | 16 µg/mL (≈ 20.1 µM) | > 256 µg/mL |  |
| CC[C@H]1OC(=O)[C@H](C)C(=O)[C@H](C)[C@@H](O[C@H]2C[C@@H](N(C)C)C[C@@H](C)O2)[C@](C)(OC)C[C@@H](C)C(=O)[C@H](C)[C@H]2N(CCCCn3cnc(-c4cccnc4)c3)C(=O)O[C@]12C | 8 µg/mL (≈ 10.1 µM) | > 256 µg/mL |  |
| CCCCN(C)[C@H]1C[C@@H](C)O[C@@H](O[C@@H]2[C@@H](C)C(=O)[C@@H](C)C(=O)O[C@H](CC)[C@@]3(C)OC(=O)N(CCCCn4cnc(-c5cccnc5)c4)[C@@H]3[C@@H](C)C(=O)[C@H](C)C[C@@]2(C)OC)[C@@H]1O | 0.5 µg/mL (≈ 0.585 µM) | > 256 µg/mL |  |
| CCCCN(C)[C@@H]1C[C@H](O[C@@H]2[C@@H](C)C(=O)[C@@H](C)C(=O)O[C@H](CC)[C@@]3(C)OC(=O)N(CCCCn4cnc(-c5cccnc5)c4)[C@@H]3[C@@H](C)C(=O)[C@H](C)C[C@@]2(C)OC)O[C@H](C)C1 | 64 µg/mL (≈ 76.4 µM) | > 256 µg/mL |  |
| CC[C@H]1OC(=O)[C@H](C)C(=O)[C@H](C)[C@@H](O[C@H]2C[C@@H](N(C)C)C[C@@H](C)O2)[C@](C)(OC/C=C/c2cnc3ccccc3c2)C[C@@H](C)C(=O)[C@H](C)[C@H]2NC(=O)O[C@@]21C | 4 µg/mL (≈ 5.33 µM) | > 256 µg/mL |  |
| CC[C@H]1OC(=O)[C@H](C)C(=O)[C@H](C)[C@@H](O[C@@H]2O[C@H](C)C[C@H](N(C)C)[C@H]2O)[C@](C)(OCC=Cc2cnc3ccccc3c2)C[C@@H](C)C(=O)[C@H](C)[C@H]2NC(=O)O[C@@]21C [CETHROMYCIN] | 0.0075 µg/mL (≈ 0.00979 µM) | > 256 µg/mL | >10000 |
| CC[C@H]1OC(=O)[C@H](C)[C@@H](O[C@H]2C[C@@](C)(OC)[C@@H](O)[C@H](C)O2)[C@H](C)[C@@H](O[C@@H]2O[C@H](C)C[C@H](N(C)C)[C@H]2O)[C@](C)(O)C[C@@H](C)C(=O)[C@H](C)[C@@H](O)[C@]1(C)O [ERYTHROMYCIN] | 0.5 µg/mL (≈ 0.681 µM) | > 256 µg/mL |  |
| CC[C@H]1OC(=O)[C@H](C)C(=O)[C@H](C)[C@@H](O[C@@H]2O[C@H](C)C[C@H](N(C)C)[C@H]2O)[C@](C)(OC)C[C@@H](C)C(=O)[C@H](C)[C@H]2N(CCCCn3cnc(-c4cccnc4)c3)C(=O)O[C@]12C [TELITHROMYCIN] | 0.08 µg/mL (≈ 0.0985 µM) | > 256 µg/mL |  |
